Experiment [1] has as its target T1, ConA (Canavalia ensiformis, UniProt P02866). It is filed as binding. As to the method:
A PBS-T (0.05%) solution containing glucose, maltose, GlcNAc, galactose, or lactose as a sugar chain at a concentration of 400 mM was prepared.
First, a PBS-T (0.05%) solution containing ConA or RCA120 at a concentration of 2 μM was prepared as a lectin solution, and the lectin solution was introduced to 96-well titer plate by adding 10 μl in each well. Then, a glucose solution, a maltose solution, or a GlcNAc solution was added to a ConA-added well by 20 μl in each well. A galactose solution or a lactose solution was added to a RCA120-added well by 20 μl in each well. The resulting solutions were stirred at a room temperature for 1 hour. […] The resulting solutions were stirred at a room temperature for 1 hour. After the stirring, absorbance of the stirred solutions at 525 nm was measured.
Values below the “after” column are IC50 obtained in a case where the sugar chain was added to an aggregate of the lectin and the colloid solution. Values below the “before” column are IC50 obtained in a case where the colloid solution was added to the admixture of the lectin and the sugar chain.

The target in the next experiment is RCA120 (Ricinus communis, UniProt P06750). In kind it is binding, caster bean. More on the design: key to Degree of dissociation: ⊚: lectin was completely dissociated; ◯: lectin was almost completely dissociated; Δ: lectin was dissociated with residual sugar-protein interactant (aggregate); X: the lactose-RCA120 interactant kept in aggregated state, and lectin was not dissociated therefrom.

In experiment [2] the target is T1, ConA. Briefly: Dissociation of ConA from maltose-ConA interactant by added glucose. Conditions: visual observation. In kind it is binding. The method, then:
100 μl of PBS-T (0.05%) solution containing ConA at 250 μg/ml was placed in an Eppendorf tube. […] Then, a mixture solution was vortexed for at least 10 seconds. Thereafter, the resulting mixture solution was left for approximately 2 hours, and a sugar-protein interactant was precipitated out of the mixture solution by centrifugation. Then, supernatant thereof was removed, and the sugar-protein interactant was washed with PBS-T (0.05%) solution and water several times. After the washing, 100 μl of 200 mM glucose aqueous solution was added to the sugar-protein interactant, and the resulting mixture solution was left for approximately 1 hour.
First, 25 μl of PBS-T (0.05%) solution containing RCA120 at 250 μg/ml was placed in an Eppendorf tube. To the solution was added 25 μl of the colloid solution of lactose-immobilized gold nanoparticles which was prepared in Example 4. Then, a mixture solution was vortexed for at least 10 seconds. Thereafter, the resulting mixture solution was left for approximately 2 hours, and a sugar-protein interactant (lactose-RCA interactant) was precipitated out of the mixture solution by centrifugation. Then, supernatant thereof was removed, and the sugar-protein interactant was washed with PBS-T (0.05%) solution and water several times. […] The results were evaluated by visual observation and UV-Vis measurement. […]

The record followed here is patent US8067393B2 (priority 2005, dated 2011).

Like-named read-outs stand apart in the source and are kept apart here.

The IC50 is the midpoint of a concentration-inhibition curve. Turning to `CC(=O)N[C@H]1C(O)O[C@H](CO)[C@@H](O)[C@@H]1O` (some centres unmarked) [GlcNAc, N-acetyl glucosamine], the figures for the IC50 at ConA [1] (read-out: IC50 after) and at ConA [1] (read-out: IC50 before) were 80.1 mM and 22.9 mM, respectively.
On to `O=C[C@H](O)[C@@H](O)[C@@H](O)[C@H](O)CO` [galactose], for which, on RCA120, the Degree of dissociation result is “Δ and X and ◯”; the “concentration of added sugar solution at which excellent RCA120 dissociation was observed” value was ≥ 25 mM. The “concentration of added sugar solution at which excellent ConA dissociation was observed” value on ConA [2] was ≥ 50 mM.
